Test results taken from ChEMBL document CHEMBL1221208, “ATP-competitive inhibitors of the mitotic kinesin KSP that function via an allosteric mechanism” (Nat Chem Biol, 2007).
Activity calls are given as the source filed them. The rule behind the calls is not given here.

What was measured:
HCT-116 [1] = experiment: Antiproliferative activity against IC95 biaryl selected human HCT116 cells expressing Kinesin-like protein KIF11 D130V mutant after 72 hrs by Cell titer Glo assay; type: functional, cell-based; conditions: HCT-116, 72 h
HCT-116 [2] = experiment: Antiproliferative activity against IC95 biaryl selected drug-resistant against human HCT116 cells after 72 hrs by Cell titer Glo assay; type: functional, cell-based; conditions: HCT-116, 72 h
HCT-116 [3] = experiment: Antiproliferative activity against 3x IC95 biaryl selected human HCT116 cells expressing Kinesin-like protein KIF11 D130V mutant after 72 hrs by Cell titer Glo assay; type: functional, cell-based; conditions: HCT-116, 72 h
HCT-116 [4] = experiment: Antiproliferative activity against human HCT116 cells expressing Kinesin-like protein KIF11 D130V mutant after 72 hrs by Cell titer Glo assay; type: functional, cell-based; conditions: HCT-116, 72 h
HCT-116 [5] = experiment: Antiproliferative activity against 3x IC95 biaryl selected drug-resistant against human HCT116 cells after 72 hrs by Cell titer Glo assay; type: functional, cell-based; conditions: HCT-116, 72 h
HCT-116 [6] = experiment: Antiproliferative activity against human HCT116 cells after 72 hrs by Cell titer Glo assay; type: functional, cell-based; conditions: HCT-116, 72 h
HCT-116 [7] = experiment: Antiproliferative activity against IC50 biaryl selected human HCT116 cells expressing Kinesin-like protein KIF11 D130V mutant after 72 hrs by Cell titer Glo assay; type: functional, cell-based; conditions: HCT-116, 72 h
HCT-116 [8] = experiment: Antiproliferative activity against IC50 biaryl selected drug-resistant against human HCT116 cells after 72 hrs by Cell titer Glo assay; type: functional, cell-based; conditions: HCT-116, 72 h
[9] = molecular target: T1, Kinesin-like protein KIF11 (Homo sapiens, UniProt P52732); experiment: Inhibition of human wild type Eg5 using varying ATP levels in presence of saturating levels of microtubule by Lineweaver-Burke plot
T1 sequence (P52732 whole entry): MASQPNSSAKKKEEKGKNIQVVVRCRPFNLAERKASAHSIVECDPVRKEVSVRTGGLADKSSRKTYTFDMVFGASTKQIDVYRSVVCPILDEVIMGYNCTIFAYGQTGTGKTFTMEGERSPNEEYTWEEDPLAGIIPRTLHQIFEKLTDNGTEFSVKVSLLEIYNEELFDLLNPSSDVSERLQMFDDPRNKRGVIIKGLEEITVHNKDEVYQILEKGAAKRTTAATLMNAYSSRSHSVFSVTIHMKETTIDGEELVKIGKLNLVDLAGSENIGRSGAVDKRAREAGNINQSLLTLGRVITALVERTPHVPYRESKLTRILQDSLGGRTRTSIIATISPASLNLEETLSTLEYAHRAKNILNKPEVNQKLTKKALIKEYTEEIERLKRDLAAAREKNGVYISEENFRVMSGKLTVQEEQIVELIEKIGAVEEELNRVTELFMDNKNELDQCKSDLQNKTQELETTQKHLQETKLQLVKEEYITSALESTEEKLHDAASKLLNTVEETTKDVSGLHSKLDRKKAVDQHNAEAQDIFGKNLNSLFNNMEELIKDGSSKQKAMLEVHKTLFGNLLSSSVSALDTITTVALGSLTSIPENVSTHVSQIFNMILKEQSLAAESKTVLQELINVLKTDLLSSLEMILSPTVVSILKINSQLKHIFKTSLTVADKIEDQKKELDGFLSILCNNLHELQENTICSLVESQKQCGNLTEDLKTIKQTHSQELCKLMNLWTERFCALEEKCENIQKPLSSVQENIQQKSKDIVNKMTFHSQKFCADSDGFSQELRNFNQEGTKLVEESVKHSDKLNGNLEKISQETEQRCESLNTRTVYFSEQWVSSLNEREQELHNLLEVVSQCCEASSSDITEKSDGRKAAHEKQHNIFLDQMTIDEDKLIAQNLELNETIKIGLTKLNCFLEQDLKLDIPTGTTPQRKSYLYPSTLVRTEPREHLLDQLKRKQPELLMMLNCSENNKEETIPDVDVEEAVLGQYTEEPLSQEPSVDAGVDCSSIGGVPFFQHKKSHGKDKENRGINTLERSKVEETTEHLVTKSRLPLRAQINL

[10] = molecular target: T2, Kinesin-like protein KIF11 (Homo sapiens) (UniProt P52732); experiment: Binding affinity to human KSP assessed as photoaffinity labeling at Leu295 residue at 240 uM by photo affinity labeling study
T2 sequence (whole entry): T1 sequence (P52732 whole entry)

| Structure (SMILES) | IC50 (HCT-116 [1]) | IC50 (HCT-116 [2]) | IC50 (HCT-116 [3]) | IC50 (HCT-116 [4]) | IC50 (HCT-116 [5]) | IC50 (HCT-116 [6]) | IC50 (HCT-116 [7]) | IC50 (HCT-116 [8]) | Ki [9] | Activity [10] |
| --- | --- | --- | --- | --- | --- | --- | --- | --- | --- | --- |
| Cc1ccc(C(=O)N(CCCN)[C@@H](c2nc3cc(Cl)ccc3c(=O)n2Cc2ccccc2)C(C)C)cc1F | 675 nM | 1 nM | 87.3 nM | 903 nM | 22 nM | 0.46 nM | 1190 nM | 0.72 nM | – | – |
| NC(=O)Nc1ccc(-c2ccc(C3(C(F)(F)F)N=N3)cc2)cc1 | – | – | – | – | – | – | – | – | 330 nM | Active |
| CC(=O)O[C@@]12CO[C@@H]1C[C@H](O)[C@@]1(C)C(=O)[C@H](O)C3=C(C)[C@@H](OC(=O)[C@H](O)[C@@H](NC(=O)OC(C)(C)C)c4ccccc4)C[C@@](O)([C@@H](OC(=O)c4ccccc4)[C@H]21)C3(C)C [DOCETAXEL] | 0.59 nM | 0.18 nM | 0.35 nM | 0.23 nM | 8.7 nM | 0.3 nM | 0.2 nM | 0.31 nM | – | – |
